Test system: rabbit polyclonal antibody #11341
Assay: Coadministered drug interference study in the homogeneous enzyme immunoassay (HITACHI 917)
Format: binding
Conditions: 5.0 μg/mL drug added to human serum containing 20.0 μg/mL topiramate
Protocol: The antibody was added into the antibody diluent to prepare the antibody reagent. The antibody reagent consists of antibody as prepared above, buffer, stabilizers, preservatives, and the substrates for the enzyme conjugate NAD and glucose 6 phosphate. […] The enzyme conjugate reagent consists of the conjugate, buffer, stabilizers and preservatives.
(§1) The ARK Assay for topiramate is conducted using a liquid, ready-to-use, two-reagent kit. […] Topiramate containing sample is incubated with antibody reagent followed by the addition of the enzyme conjugate reagent. The enzyme conjugate activity decreases upon binding to the antibody. The enzyme conjugate, which is not bound to the antibody, catalyzes the oxidation of glucose 6-phosphate (G6P). The oxidation of G6P is coupled with the reduction of NAD^+ to NADH, which can be measured at 340 nm. The change in the absorbance at 340 nm can be measured spectrophotometrically. The topiramate concentration in a specimen can be measured in terms of G6PDH activity. The increase in the rate at 340 nm is due to the formation of NADH and is proportional to the enzyme conjugate activity. […] The assay rate increases with increasing the concentration of drug in the sample.
A high concentration of each coadministered drug was spiked into normal human serum with containing topiramate 20 μg/mL and assayed. Each sample was assayed in duplicate. […] The percentage concentration above 20.0 μg/mL of topiramate was calculated for each coadministered drug tested.

SMILES | % Interference [(20.0 μg/mL Topiramate) − (Result)] ÷ (drug conc.) × 100 [%]
NC(N)=Nc1nc(CSCCC(N)=NS(N)(=O)=O)cs1 [Famotidine] | −0.2

Same assay, conditions: 10.0 μg/mL drug added to human serum containing 20.0 μg/mL topiramate

SMILES | % Interference [(20.0 μg/mL Topiramate) − (Result)] ÷ (drug conc.) × 100 [%]
NS(=O)(=O)c1cc(C(=O)O)c(NCc2ccco2)cc1Cl [Furosemide] | 0.10

Same assay, conditions: 50.0 μg/mL drug added to human serum containing 20.0 μg/mL topiramate

SMILES | % Interference [(20.0 μg/mL Topiramate) − (Result)] ÷ (drug conc.) × 100 [%]
CC(=O)Nc1nnc(S(N)(=O)=O)s1 [Acetazolamide] | 0.56
CC(C)NCC(O)COc1ccc(CC(N)=O)cc1 (stereo not drawn) [Atenolol] | −0.40
O=C1CN=C(c2ccccc2Cl)c2cc([N+](=O)[O-])ccc2N1 [Clonazepam] | 0.70
O=C1NC(=O)C(c2ccccc2)(c2ccccc2)N1 [Phenytoin] | 0.32
CN1C(=O)CN=C(c2ccccc2)c2cc(Cl)ccc21 [Diazepam] | 0.64
CC(C)Cc1ccc(C(C)C(=O)O)cc1 (stereo not drawn) [Ibuprofen] | 2.30
CC(=O)Nc1ccc(O)cc1 [Acetominophen] | −0.38

Same assay, conditions: 100.0 μg/mL drug added to human serum containing 20.0 μg/mL topiramate

SMILES | % Interference [(20.0 μg/mL Topiramate) − (Result)] ÷ (drug conc.) × 100 [%]
Cn1c(=O)c2c(ncn2C)n(C)c1=O [Caffeine] | 0.35
CCC1(c2ccccc2)C(=O)NCNC1=O [Primidone] | −1.83
COc1ccc(CCN(C)CCCC(C#N)(c2ccc(OC)c(OC)c2)C(C)C)cc1OC (stereo not drawn) [Verapamil] | 1.07
CC(=O)Oc1ccccc1C(=O)O [Acetylsalicyclic Acid] | 0.25
NS(=O)(=O)c1cc(C2(O)NC(=O)c3ccccc32)ccc1Cl (stereo not drawn) [Chlorthalidone] | 0.16
Nc1nnc(-c2cccc(Cl)c2Cl)c(N)n1 [Lamotrogine] | −1.02
NC(=O)N1c2ccccc2C=Cc2ccccc21 [Carbamazepine] | −0.43
COCCc1ccc(OCC(O)CNC(C)C)cc1 (stereo not drawn) [Metoprolol] | 0.35
CCC1(c2ccccc2)C(=O)NC(=O)NC1=O [Phenobarbitol] | 1.08
NCC1(CC(=O)O)CCCCC1 [Gabapentin] | −0.49

Same assay, conditions: 200.0 μg/mL drug added to human serum containing 20.0 μg/mL topiramate

SMILES | % Interference [(20.0 μg/mL Topiramate) − (Result)] ÷ (drug conc.) × 100 [%]
CC[C@@H](C(N)=O)N1CCCC1=O [Levetiracetam] | −0.45
NS(=O)(=O)Cc1noc2ccccc12 [Zonisamide] | 0.08
CCCC(CCC)C(=O)O [Valproic Acid] | 0.50

Same assay, conditions: 500.0 μg/mL drug added to human serum containing 20.0 μg/mL topiramate

SMILES | % Interference [(20.0 μg/mL Topiramate) − (Result)] ÷ (drug conc.) × 100 [%]
CCC1(C)CC(=O)NC1=O (stereo not drawn) [Ethosuxamide] | −0.09
NC(=O)OCC(COC(N)=O)c1ccccc1 [Felbamate] | 0.20

Same assay, conditions: 750.0 μg/mL drug added to human serum containing 20.0 μg/mL topiramate

SMILES | % Interference [(20.0 μg/mL Topiramate) − (Result)] ÷ (drug conc.) × 100 [%]
O=C(O)c1ccccc1O [Salicylic Acid] | −5.73
CCCCNC(=O)NS(=O)(=O)c1ccc(C)cc1 [Tolbutamide] | −0.08

Same assay, conditions: 2000.0 μg/mL drug added to human serum containing 20.0 μg/mL topiramate

SMILES | % Interference [(20.0 μg/mL Topiramate) − (Result)] ÷ (drug conc.) × 100 [%]
Nc1ccc(S(N)(=O)=O)cc1 [Sulfanilamide] | −0.16

Test system: antibody from rabbit #11341
Assay: Crossreactivity to topiramate metabolites in the homogeneous enzyme immunoassay (HITACHI 917)
Format: binding
Conditions: metabolite 50.0 μg/mL, in the presence of 20 μg/mL topiramate
Protocol: % Crossreactivity=100×(“apparent concentration of measurand”/“concentration of crossreactant”)
as §1
The apparent topiramate concentration for the metabolite is the difference in concentration with metabolite minus the concentration without metabolite.

SMILES | % Cross Reactivity [%]
CC1(C)O[C@H]2[C@@H]3O[C@@](C)(CO)O[C@@H]3CO[C@@]2(COS(N)(=O)=O)O1 [10-OH-Topiramate, 10-hydroxytopiramate] | 3.20
CC1(C)O[C@H]2[C@@H]3O[C@](C)(CO)O[C@@H]3CO[C@@]2(COS(N)(=O)=O)O1 [9-OH-Topiramate, 9-hydroxytopiramate] | 3.18

Test system: antibodies raised with immunogens (10-KLH, 12-KLH, 12-L-KLH, 19-KLH, 22-KLH and 25-KLH)
Assay: Enzyme-based assay format, reactivity of antibodies raised with the immunogens
Format: binding
Conditions: not given
Text: All the prepared haptens have utility for KLH and G6PDH bio-conjugation. immunogens (10-KLH, 12-KLH, 12-L-KLH, 19-KLH, 22-KLH and 25-KLH) were used to raise antibodies.

SMILES | reactivity of the antibodies
CC1(C)O[C@@H]2[C@@H](CO[C@@]3(CO)OC(C)(C)O[C@@H]23)O1 [diacetonefructose] | good reactivity
